Measurements taken from PubChem BioAssay AID328 (DTP/NCI, 2004).
Values joined by “and” are separate entries in the source; they are usually repeats but may differ in a detail not shown here. Equal values may be shown once. Inconclusive results and toxic doses are left out.

Tested on: BDF1 mice, P388 leukemia ip, median survival T/C
Assay: NCI In Vivo Anticancer Drug Screen. Data for tumor model P388 Leukemia (intraperitoneal) in B6D2F1 (BDF1) mice
Details: endpoint: median survival time, higher = longer survival
Method in brief: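 Survival ratio, drug arm over vehicle arm, in mice with a transplanted tumour.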

[1] = dose: 100.0 mg/kg/injection, schedule: Q01DX009 (ip), vehicle: saline with Tween-80

Q: With ClC(Cl)(Cl)c1ccc(C(Cl)(Cl)Cl)cc1 as the compound, how does the T/C (dose: 6.0 mg/kg/injection, schedule: Q01DX009 (ip), vehicle: Klucel (hydroxypropylcellulose) (HPC)) read?
A: The T/C was 100 % of control.

Q: And the T/C (dose: 6.25 mg/kg/injection, schedule: Q01DX009 (ip), vehicle: Klucel (hydroxypropylcellulose) (HPC))?
A: Its T/C is 90 % of control.

Q: And the T/C (dose: 12.0 mg/kg/injection, schedule: Q01DX009 (ip), vehicle: Klucel (hydroxypropylcellulose) (HPC))?
A: The T/C was 104 % of control.

Q: And the T/C (dose: 12.5 mg/kg/injection, schedule: Q01DX009 (ip), vehicle: Klucel (hydroxypropylcellulose) (HPC))?
A: The T/C was 90 % of control.

Q: And the T/C (dose: 12.5 mg/kg/injection, schedule: Q04DX003 (ip), vehicle: Klucel (hydroxypropylcellulose) (HPC))?
A: The T/C was 105 % of control.

Q: And the T/C (dose: 22.0 mg/kg/injection, schedule: Q04DX003 (ip), vehicle: Klucel (hydroxypropylcellulose) (HPC))?
A: Its T/C is 96 % of control and 118 % of control.

Q: What about the T/C (dose: 25.0 mg/kg/injection, schedule: Q01DX009 (ip), vehicle: Klucel (hydroxypropylcellulose) (HPC)) of the same compound?
A: Its T/C is 104 % of control.

Q: And the T/C (dose: 25.0 mg/kg/injection, schedule: Q04DX003 (ip), vehicle: Klucel (hydroxypropylcellulose) (HPC))?
A: Its T/C is 120 % of control.

Q: What about the T/C (dose: 33.0 mg/kg/injection, schedule: Q04DX003 (ip), vehicle: Klucel (hydroxypropylcellulose) (HPC)) of the same compound?
A: Its T/C is 119 % of control and 122 % of control.

Q: And the T/C (dose: 50.0 mg/kg/injection, schedule: Q01DX009 (ip), vehicle: Klucel (hydroxypropylcellulose) (HPC))?
A: Its T/C is 90 % of control and 100 % of control.

Q: What about the T/C (dose: 75.0 mg/kg/injection, schedule: Q04DX003 (ip), vehicle: Klucel (hydroxypropylcellulose) (HPC)) of the same compound?
A: Its T/C is 100 % of control.

Q: And the T/C (dose: 100.0 mg/kg/injection, schedule: Q01DX009 (ip), vehicle: Klucel (hydroxypropylcellulose) (HPC))?
A: The T/C was 100 % of control.

Q: What about the T/C (dose: 150.0 mg/kg/injection, schedule: Q04DX003 (ip), vehicle: Klucel (hydroxypropylcellulose) (HPC)) of the same compound?
A: Its T/C is 109 % of control.

Q: And the T/C (dose: 250.0 mg/kg/injection, schedule: Q04DX003 (ip), vehicle: Klucel (hydroxypropylcellulose) (HPC))?
A: Its T/C is 100 % of control.

Q: What about the T/C (dose: 400.0 mg/kg/injection, schedule: Q04DX003 (ip), vehicle: Klucel (hydroxypropylcellulose) (HPC)) of the same compound?
A: The T/C was 104 % of control.

Q: With COc1ccc(-c2c(C)c(C(=O)O)nc(-c3ccc4c(O)c(OC)c5c(c4n3)=NC(C)(C)N=5)c2N)c(O)c1OC as the compound, how does the T/C (dose: 1.0 mg/kg/injection, schedule: Q01DX010 (ip), vehicle: other) read?
A: Its T/C is 90 % of control.

Q: And the T/C (dose: 2.0 mg/kg/injection, schedule: Q01DX010 (ip), vehicle: other)?
A: Its T/C is 118 % of control.

Q: What about the T/C (dose: 4.0 mg/kg/injection, schedule: Q01DX010 (ip), vehicle: other) of the same compound?
A: The T/C was 118 % of control.

Q: And the T/C (dose: 5.0 mg/kg/injection, schedule: Q01DX010 (ip), vehicle: water)?
A: Its T/C is 100 % of control.

Q: And the T/C (dose: 10.0 mg/kg/injection, schedule: Q01DX010 (ip), vehicle: water)?
A: The T/C was 95 % of control.

Q: Which T/C (dose: 50.0 mg/kg/injection, schedule: Q01DX009 (ip), vehicle: saline with Tween-80) does the source give for CCO/C=C1\SC(=S)N(c2ccc(O)cc2)C1=O here?
A: The T/C was 116 % of control.

Q: And the T/C [1]?
A: Its T/C is 116 % of control.

Q: What about the T/C (dose: 200.0 mg/kg/injection, schedule: Q01DX009 (ip), vehicle: saline with Tween-80) of the same compound?
A: Its T/C is 116 % of control.

Q: Nc1ccccc1-c1ccc([N+](=O)[O-])cc1 was tested. Which T/C (dose: 100.0 mg/kg/injection, schedule: Q01DX001 (ip), vehicle: saline with Tween-80) did it give?
A: The T/C was 95 % of control.

Q: And the T/C (dose: 200.0 mg/kg/injection, schedule: Q01DX001 (ip), vehicle: saline with Tween-80)?
A: Its T/C is 100 % of control.

Q: And the T/C (dose: 400.0 mg/kg/injection, schedule: Q01DX001 (ip), vehicle: saline with Tween-80)?
A: The T/C was 91 % of control.

Q: CC(CCC(=O)NC12CC3CC(CC(C3)C1)C2)C1CCC2C3CCC4CC(OC=O)CCC4(C)C3CC(OC=O)C12C (centres undefined) was tested. Which T/C (dose: 12.5 mg/kg/injection, schedule: Q04DX002 (ip), vehicle: saline with Tween-80) did it give?
A: Its T/C is 91 % of control.

Q: And the T/C (dose: 25.0 mg/kg/injection, schedule: Q04DX002 (ip), vehicle: saline with Tween-80)?
A: Its T/C is 110 % of control.

Q: What does the source list for CCCn1c2nc(=O)n(C)c(=O)c-2[n+]([O-])c2ccccc21?
A: T/C (dose: 6.25 mg/kg/injection, schedule: Q01DX001 (ip), vehicle: saline with Tween-80): 101 % of control; T/C (dose: 12.5 mg/kg/injection, schedule: Q01DX001 (ip), vehicle: saline with Tween-80): 99 % of control

Q: Which results are given for O=C(O)CCI?
A: T/C (dose: 25.0 mg/kg/injection, schedule: Q04DX003 (ip), vehicle: saline with Tween-80): 113 % of control; T/C (dose: 50.0 mg/kg/injection, schedule: Q01DX009 (ip), vehicle: saline): 100 % of control; T/C (dose: 50.0 mg/kg/injection, schedule: Q04DX003 (ip), vehicle: saline with Tween-80): 100 % of control; T/C (dose: 100.0 mg/kg/injection, schedule: Q01DX001 (ip), vehicle: saline): 104 % of control; T/C (dose: 100.0 mg/kg/injection, schedule: Q01DX009 (ip), vehicle: saline): 100 % of control; T/C (dose: 100.0 mg/kg/injection, schedule: Q04DX003 (ip), vehicle: saline with Tween-80): 92 % of control and 95 % of control; T/C (dose: 200.0 mg/kg/injection, schedule: Q01DX001 (ip), vehicle: saline): 104 % of control; T/C (dose: 200.0 mg/kg/injection, schedule: Q01DX009 (ip), vehicle: saline): 91 % of control

Q: For CC(=O)N1c2ccccc2Sc2ccc3ccc(C(=O)CCl)cc3c21, which T/C [1] is on record?
A: The T/C was 153 % of control.
